Experimental data published in patent US20210214375A1 (LUNDBECK LA JOLLA RESEARCH CENTER, INC., priority 2017, published 2021).
pIC50: −log10 of the molar value.

Tests used:
MGLL = target: T1, MGLL (Mus musculus, UniProt O35678); assay: In vitro competitive activity-based protein profiling, mouse brain proteome; type: biochemical
T1 construct: Brain; from tissue; host or cells: mouse brain proteome
T1 sequence (O35678 1-303): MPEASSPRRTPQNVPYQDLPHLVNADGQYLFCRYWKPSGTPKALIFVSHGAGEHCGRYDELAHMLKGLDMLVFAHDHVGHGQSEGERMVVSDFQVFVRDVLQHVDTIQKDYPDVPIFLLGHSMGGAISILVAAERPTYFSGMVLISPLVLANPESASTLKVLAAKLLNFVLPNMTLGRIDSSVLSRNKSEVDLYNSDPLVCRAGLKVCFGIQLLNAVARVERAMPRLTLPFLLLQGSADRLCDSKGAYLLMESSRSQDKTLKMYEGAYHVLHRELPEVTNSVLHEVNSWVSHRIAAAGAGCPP
Experimental: [Worded in the source for another species; this species is reported under the same test.] (§1) Proteomes (human prefrontal cortex or cell membrane fractions) (50 μL, 1.0 mg/mL total protein concentration) were preincubated with varying concentrations of inhibitors at 37° C. After 30 min, FP—Rh or HT-01 (1.0 μL, 50 μM in DMSO) was added and the mixture was incubated for another 30 min at room temperature. Reactions were quenched with SDS loading buffer (15 μL-4×) and run on SDS-PAGE.

ABHD6 = target: T2, ABHD6 (Mus musculus, UniProt Q8R2Y0); assay: In vitro competitive activity-based protein profiling, mouse brain proteome, ABHD6; type: biochemical; settings: mouse
T2 construct: Brain; from tissue; host or cells: mouse brain proteome
T2 sequence (Q8R2Y0 1-336): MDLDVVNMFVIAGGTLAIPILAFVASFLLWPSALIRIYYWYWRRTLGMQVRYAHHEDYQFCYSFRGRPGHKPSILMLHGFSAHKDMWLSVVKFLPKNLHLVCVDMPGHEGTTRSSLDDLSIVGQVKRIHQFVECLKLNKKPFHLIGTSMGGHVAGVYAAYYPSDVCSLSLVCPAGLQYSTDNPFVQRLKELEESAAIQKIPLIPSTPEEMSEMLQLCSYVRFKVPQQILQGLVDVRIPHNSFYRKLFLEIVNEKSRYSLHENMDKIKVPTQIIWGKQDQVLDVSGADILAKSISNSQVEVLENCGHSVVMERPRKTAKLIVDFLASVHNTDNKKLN
Experimental: [Worded in the source for another target; this target is reported under the same test.] as §1

MAGL = target: T3, MAGL (Mus musculus, UniProt O35678); assay: Mouse brain proteomes from inhibitor treated mice (oral gavage, brain proteomes analyzed 4 h after administration); type: in vivo, mouse (C57Bl/6J); settings: brain proteome 4 h after administration, read-out: % Inh 5 mg/kg MGLL (Mouse)
T3 construct: from tissue; host or cells: brain of wild-type C57Bl/6J mice
T3 sequence (O35678 1-303): T1 sequence (O35678 1-303)
Outline: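 Wild-type C57Bl/6J mice dosed orally in polyethylene glycol vehicle; brains removed 4 h post-dose and brain proteomes prepared and analysed for MAGL and serine hydrolase activity by previously established methods.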

Row | pIC50 (MGLL) | pIC50 (ABHD6) | inhibition at 5 mg/kg (MAGL) [%] | SMILES
1 | > 7.00 | < 6.00 | ≥ 75 | CS(=O)(=O)N1CC2(CCN(c3cc(Cl)ccc3CN3CCN(C(=O)OC(C(F)(F)F)C(F)(F)F)CC3)C2)C1 [Example 175, 1,1,1,3,3,3-Hexafluoropropan-2-yl 4-(4-chloro-2-(2-(methylsulfonyl)-2,6-diazaspiro[3.4]octan-6-yl)benzyl)piperazine-1-carboxylate]
2 | > 7.00 | < 6.00 | ≥ 75 | CC(=O)N1CC2(CCN(c3cc(Cl)ccc3CN3CCN(C(=O)OC(C(F)(F)F)C(F)(F)F)CC3)C2)C1 [Example 176, 1,1,1,3,3,3-Hexafluoropropan-2-yl 4-(2-(2-acetyl-2,6-diazaspiro[3.4]octan-6-yl)-4-chlorobenzyl) piperazine-1-carboxylate]
3 | > 7.00 | < 6.00 | 25 to 75 | CN1CCC2(CCN(c3cc(Cl)ccc3CN3CCN(C(=O)OC(C(F)(F)F)C(F)(F)F)CC3)CC2)C1 [Example 177, 1,1,1,3,3,3-Hexafluoropropan-2-yl 4-(4-chloro-2-(2-methyl-2,8-diazaspiro[4.5]decan-8-yl)benzyl)piperazine-1-carboxylate]
4 | > 7.00 | < 6.00 | ≥ 75 | CC(=O)N1CCC2(CCN(c3cc(Cl)ccc3CN3CCN(C(=O)OC(C(F)(F)F)C(F)(F)F)CC3)CC2)C1 [Example 178, 1,1,1,3,3,3-Hexafluoropropan-2-yl 4-(2-(2-acetyl-2,8-diazaspiro[4.5]decan-8-yl)-4-chlorobenzyl) piperazie-1-carboxylate]
5 | > 7.00 | < 6.00 | ≥ 75 | O=C(OC(C(F)(F)F)C(F)(F)F)N1CCC2(CCN(Cc3ccc(Cl)cc3N3CCOCC3)CC2)C1 [Example 181, 1,1,1,3,3,3-Hexafluoropropan-2-yl 8-(4-chloro-2-molpholinobenzyl)-2,8-diazaspiro[4.5]decane-2-carboxylate]
6 | > 7.00 | < 6.00 | ≤ 25 | CN1CCC2(CCN(c3cc(C(F)(F)F)ccc3CN3CCN(C(=O)OC(C(F)(F)F)C(F)(F)F)CC3)CC2)C1 [Example 182, 1,1,1,3,3,3-Hexafluoropropan-2-yl 4-(2-(2-methyl-2,8-diazaspiro[4.5]decan-8-yl)-4-(trifluoromethyl)benzyl)piperazine-1-carboxylate]
7 | > 7.00 | < 6.00 | ≥ 75 | O=C(OC(C(F)(F)F)C(F)(F)F)N1CCC2(CCN(Cc3ccc(Cl)cc3N3CCCCC3)CC2)C1 [Example 191, 1,1,1,3,3,3-Hexafluoropropan-2-yl 8-(4-chloro-2-(piperidin-1-yl)benzyl)-2,8-diazaspiro[4.5]decane-2-carboxylate]
8 | > 7.00 | < 6.00 | ≤ 25 | CC(=O)N1CCC2(CC1)CCN(c1cc(C(F)(F)F)ccc1CN1CCN(C(=O)OC(C(F)(F)F)C(F)(F)F)CC1)C2 [Example 197, 1,1,1,3,3,3-Hexafluoropropan-2-yl 4-(2-(8-acetyl-2,8-diazaspiro[4.5]decan-2-yl)-4-(trifluoromethyl)benzyl)piperazine-1-carboxylate]
9 | > 7.00 | < 6.00 | ≥ 75 | CC(=O)N1CCC2(CC1)CN(c1cc(Cl)ccc1CN1CCN(C(=O)OC(C(F)(F)F)C(F)(F)F)CC1)C2 [Example 198, 1,1,1,3,3,3-Hexafluoropropan-2-yl 4-(2-(7-acetyl-2,7-diazaspiro[3.5]nonan-2-yl)-4-chlorobenzyl)piperazine-1-carboxylate]
10 | > 7.00 | < 6.00 | ≥ 75 | CS(=O)(=O)N1CC2(CCN(c3cc(Cl)ccc3CN3CCN(C(=O)OC(C(F)(F)F)C(F)(F)F)CC3)CC2)C1 [Example 212, 1,1,1,3,3,3-Hexafluoropropan-2-yl 4-(4-chloro-2-(2-(methylsulfonyl)-2,7-diazaspiro[3.5]nonan-7-yl)benzyl)piperazine-1-carboxylate]
11 | > 7.00 | < 6.00 | ≥ 75 | CC(=O)N1CC2(CCN(c3cc(Cl)ccc3CN3CCN(C(=O)OC(C(F)(F)F)C(F)(F)F)CC3)CC2)C1 [Example 213, 1,1,1,3,3,3-Hexafluoropropan-2-yl 4-(2-(2-acetyl-2,7-diazaspiro[3.5]nonan-7-yl)-4-chlorobenzyl) piperazine-1-carboxylate]

The next lines start with the compound.

Row | SMILES | pIC50 (MGLL) | pIC50 (ABHD6) | inhibition at 5 mg/kg (MAGL) [%]
12 | O=C(OC(C(F)(F)F)C(F)(F)F)N1CCC2(CCN(Cc3cccc(Cl)c3N3CCCC3)CC2)C1 [Example 171, 1,1,1,3,3,3-Hexafluoropropan-2-yl 8-(3-chloro-2-(pyrrolidin-1-yl)benzyl)-2,8-diazaspiro[4.5]decane-2-carboxylate] | > 7.00 | < 6.00 | ≥ 75
13 | CN1CC2(CCN(c3cc(C(F)(F)F)ccc3CN3CCN(C(=O)OC(C(F)(F)F)C(F)(F)F)CC3)C2)C1 [Example 179, 1,1,1,3,3,3-Hexafluoropropan-2-yl 4-(2-(2-methyl-2,6-diazaspiro[3.4]octan-6-yl)-4-(trifluoromethyl)benzyl)piperazine-1-carboxylate] | > 7.00 | < 6.00 | ≥ 75
14 | CCN1CC2(CCN(c3cc(C(F)(F)F)ccc3CN3CCN(C(=O)OC(C(F)(F)F)C(F)(F)F)CC3)C2)C1 [Example 184, 1,1,1,3,3,3-Hexafluoropropan-2-yl 4-(2-(2-ethyl-2,6-diazaspiro[3.4]octan-6-yl)-4-(trifluoromethyl)benzyl)piperazine-1-carboxylate] | > 7.00 | < 6.00 | ≤ 25
15 | O=C(OC(C(F)(F)F)C(F)(F)F)N1CCC2(CCN(Cc3ccc(C(F)(F)F)cc3N3CCCCC3)CC2)C1 [Example 187, 1,1,1,3,3,3-Hexafluoropropan-2-yl 8-(2-(piperidin-1-yl)-4-(trifluoromethyl)benzyl)-2,8-diazaspiro[4.5]decane-2-carboxylate] | > 7.00 | < 6.00 | ≥ 75
16 | O=C(OC(C(F)(F)F)C(F)(F)F)N1CCC2(CCN(Cc3ccc(C(F)(F)F)cc3N3CC4CCC(C3)O4)CC2)C1 [Example 190, 1,1,1,3,3,3-Hexafluoropropan-2-yl 8-(2-(8-oxa-3-azabicyclo[3.2.1]octan-3-yl)-4-(trifluoromethyl)benzyl)-2,8-diazaspiro[4.5]decane-2-carboxylate] | > 7.00 | < 6.00 | ≥ 75
17 | O=C(OC(C(F)(F)F)C(F)(F)F)N1CCC2(CCN(Cc3ccc(C(F)(F)F)cc3N3CCC(F)CC3)CC2)C1 [Example 192, 1,1,1,3,3,3-Hexafluoropropan-2-yl 8-(2-(4-fluoropiperidin-1-yl)-4-(trifluoromethyl)benzyl)-2,8-diazaspiro[4.5]decane-2-carboxylate] | > 7.00 | < 6.00 | 25 to 75
18 | CS(=O)(=O)N1CCC2(CCN(c3cc(C(F)(F)F)ccc3CN3CCN(C(=O)OC(C(F)(F)F)C(F)(F)F)CC3)C2)CC1 [Example 196, 1,1,1,3,3,3-Hexafluoropropan-2-yl 4-(2-(8-(methylsulfonyl)-2,8-diazaspiro[4.5]decan-2-yl)-4-(trifluoromethyl)benzyl)piperazine-1-carboxylate] | > 7.00 | < 6.00 | ≤ 25
19 | CC(=O)N1CCC2(CC1)CN(c1cc(C(F)(F)F)ccc1CN1CCN(C(=O)OC(C(F)(F)F)C(F)(F)F)CC1)C2 [Example 199, 1,1,1,3,3,3-Hexafluoropropan-2-yl 4-(2-(7-acetyl-2,7-diazaspiro[3.5]nonan-2-yl)-4-(trifluoromethyl)benzyl)piperazine-1-carboxylate] | > 7.00 | < 6.00 | ≥ 75
20 | CS(=O)(=O)N1CC2(CCN(c3cc(C(F)(F)F)ccc3CN3CCN(C(=O)OC(C(F)(F)F)C(F)(F)F)CC3)CC2)C1 [Example 211, 1,1,1,3,3,3-Hexafluoropropan-2-yl 4-(2-(2-(methylsulfonyl)-2,7-diazaspiro[3.5]nonan-7-yl)-4-(trifluoromethyl)benzyl)piperazine-1-carboxylate] | > 7.00 | < 6.00 | ≥ 75
21 | CS(=O)(=O)N1CCC2(CCN(c3cc(CN4CCCC45CN(C(=O)OC(C(F)(F)F)C(F)(F)F)C5)cc(C(F)(F)F)c3)CC2)C1 [Example 233, 1,1,1,3,3,3-Hexafluoropropan-2-yl 5-(3-(2-(methylsulfonyl)-2,8-diazaspiro[4.5]decan-8-yl)-5-(trifluoromethyl)benzyl)-2,5-diazaspiro[3.4]octane-2-carboxylate] | > 7.00 | < 6.00 | ≤ 25
